PMC6754336 (Drug Design, Development and Therapy, 2019)
Structures can show the parent of a compound that is named as a salt.

Assays:
in vivo = conditions: male, Wistar, rat, plasma, other: p.o. and i.v.
[1] = system: dopamine turnover ((HVA+DOPAC)/DA); test: Dopamine turnover index in rat striatum; format: in vivo; conditions: p.o.
[2] = Rat dual-probe brain microdialysis study; format: in vivo; conditions: rat MD study, 1 mg/kg p.o.
[3] = system: serotonin turnover (5-HIAA/5-HT); test: Serotonin turnover index in rat frontal cortex; format: in vivo; conditions: p.o.
[4] = human plasma; cited from earlier work
dopamine biosynthesis = test: NSD-1015-induced DOPA accumulation in striatum of reserpine-treated rats; format: in vivo, rat; conditions: p.o.

## CN(C)C(=O)N[C@H]1CC[C@H](CCN2CCN(c3cccc(Cl)c3Cl)CC2)CC1 [CAR, trans-N-[4-[2-[4-(2,3-dichlorophenyl)piperazin-1-yl]ethyl]cyclohexyl]-N’,N’-dimethylureahydrochloride]
In vivo
  half-life: 120 to 180 min
[1]
  effect on dopamine turnover: dose-dependently enhanced dopamine turnover
[2]
  free extracellular level as percent of total brain exposure: 1–2%
[2]; listed as cariprazine, 1 mg/kg
  extracellular levels in the brain: 2.6 to 9.9 nM
[3]
  effect on serotonin turnover: slightly reduced serotonin turnover
[4]
  half-life in humans: 1 to 3 days
Dopamine biosynthesis
  effect on NSD-1015-induced accumulation of DOPA: inhibited the NSD-1015-induced accumulation of DOPA
